Data reported in patent publication US11524951B2, “2-(2,4,5-substituted-anilino)pyrimidine compounds” (AstraZeneca AB, priority 2011, dated 2022).

Assays:
Type in all cases: cell-based
[1] = molecular target: T1, L858R/T790M EGFR (Homo sapiens, UniProt P00533, L858R/T790M); assay: L858R/T790M EGFR (double mutant) cellular phosphorylation assay; conditions: NCI-H1975 human lung cells; endogenous p-EGFR in cell lysates by ELISA; 2 h with compound
T1 construct: Assays to measure cellular phosphorylation of endogenous p-EGFR in cell lysates; endogenous in cells; host or cells: NCI-H1975 (human lung cell line)
T1 sequence (P00533 25-1210 T790M/L858R): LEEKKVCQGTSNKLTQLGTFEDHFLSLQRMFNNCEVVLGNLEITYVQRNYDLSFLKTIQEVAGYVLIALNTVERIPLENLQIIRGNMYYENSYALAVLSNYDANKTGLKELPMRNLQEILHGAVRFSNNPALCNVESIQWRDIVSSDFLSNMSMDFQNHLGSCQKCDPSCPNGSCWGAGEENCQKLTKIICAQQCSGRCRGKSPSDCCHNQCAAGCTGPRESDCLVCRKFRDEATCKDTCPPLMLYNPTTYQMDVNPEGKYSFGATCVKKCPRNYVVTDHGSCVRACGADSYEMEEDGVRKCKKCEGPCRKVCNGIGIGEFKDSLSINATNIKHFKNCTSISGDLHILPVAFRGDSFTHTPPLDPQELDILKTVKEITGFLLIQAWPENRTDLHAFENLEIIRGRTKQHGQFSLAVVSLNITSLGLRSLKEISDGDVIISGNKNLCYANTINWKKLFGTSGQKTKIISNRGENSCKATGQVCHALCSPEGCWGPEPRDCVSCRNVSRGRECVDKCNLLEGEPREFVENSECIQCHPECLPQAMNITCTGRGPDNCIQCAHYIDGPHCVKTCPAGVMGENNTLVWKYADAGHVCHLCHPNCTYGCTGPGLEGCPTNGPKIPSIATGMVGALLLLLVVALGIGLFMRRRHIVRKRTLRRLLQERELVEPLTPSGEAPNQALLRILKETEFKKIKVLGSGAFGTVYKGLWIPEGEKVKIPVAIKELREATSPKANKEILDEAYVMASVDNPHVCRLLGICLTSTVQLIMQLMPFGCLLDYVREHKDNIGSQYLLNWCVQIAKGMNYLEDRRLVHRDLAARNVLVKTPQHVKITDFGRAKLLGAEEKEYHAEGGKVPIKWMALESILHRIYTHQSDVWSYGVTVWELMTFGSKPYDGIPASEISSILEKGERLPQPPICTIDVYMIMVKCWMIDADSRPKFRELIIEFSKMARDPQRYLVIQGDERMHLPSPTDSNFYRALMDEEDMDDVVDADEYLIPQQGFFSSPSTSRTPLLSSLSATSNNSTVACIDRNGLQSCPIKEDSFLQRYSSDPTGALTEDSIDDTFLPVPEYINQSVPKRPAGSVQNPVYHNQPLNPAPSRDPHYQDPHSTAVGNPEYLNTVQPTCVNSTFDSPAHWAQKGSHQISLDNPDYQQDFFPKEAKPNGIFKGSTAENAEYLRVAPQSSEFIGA
Procedure: Assay 2: L858R/T790M EGFR (Double Mutant) Cellular Phosphorylation Assay
The human lung cell lines NCI-H1975 were obtained from the American type Culture Collection. […] Cells were grown in a humidified incubator at 37° C. with 5% CO2.
Assays to measure cellular phosphorylation of endogenous p-EGFR in cell lysates were carried out according to the protocol described in the R&D Systems DuoSet IC Human Phospho-EGF R ELISA (R&D Systems catalogue number #DYC1095).
40 μL of cells were seeded (10000 cells/well) in growth medium in Corning black, clear-bottomed 384-well plates and incubated at 37° C. with 5% CO2 overnight. […] Plates were incubated for a further 2 h and following aspiration of medium, 40 μL 1× lysis buffer was added to each well. Greiner black high bind 384-well plates were coated with capture antibody and then blocked with 3% BSA. Following removal of block, 15 μL of lysate were transferred to the Greiner black high bind 384-well plates and incubated for 2 hours. Following aspiration and washing of the plates with PBS, 20 μL of detection antibody were added and incubated for 2 hours. […] 20 μL QuantaBlu stop solution were added to plates and fluorescence read on an Envision plate reader using
The data obtained with each compound was exported into a suitable software package (such as Origin) to perform curve fitting analysis.

[2] = molecular target: T2, Wild-type EGFR (Homo sapiens, UniProt P00533); assay: Wild-type EGFR cellular phosphorylation assay; conditions: LoVo human colon cells; endogenous p-EGFR in cell lysates by ELISA; 2 h with compound, then stimulated 100 ng/ml for 10 minutes; read-out: Assay 3 (IC50)
T2 construct: Assays to measure cellular phosphorylation of endogenous p-EGFR in cell lysates; endogenous in cells; host or cells: LoVo (human colon cell line)
T2 sequence (P00533 25-1210): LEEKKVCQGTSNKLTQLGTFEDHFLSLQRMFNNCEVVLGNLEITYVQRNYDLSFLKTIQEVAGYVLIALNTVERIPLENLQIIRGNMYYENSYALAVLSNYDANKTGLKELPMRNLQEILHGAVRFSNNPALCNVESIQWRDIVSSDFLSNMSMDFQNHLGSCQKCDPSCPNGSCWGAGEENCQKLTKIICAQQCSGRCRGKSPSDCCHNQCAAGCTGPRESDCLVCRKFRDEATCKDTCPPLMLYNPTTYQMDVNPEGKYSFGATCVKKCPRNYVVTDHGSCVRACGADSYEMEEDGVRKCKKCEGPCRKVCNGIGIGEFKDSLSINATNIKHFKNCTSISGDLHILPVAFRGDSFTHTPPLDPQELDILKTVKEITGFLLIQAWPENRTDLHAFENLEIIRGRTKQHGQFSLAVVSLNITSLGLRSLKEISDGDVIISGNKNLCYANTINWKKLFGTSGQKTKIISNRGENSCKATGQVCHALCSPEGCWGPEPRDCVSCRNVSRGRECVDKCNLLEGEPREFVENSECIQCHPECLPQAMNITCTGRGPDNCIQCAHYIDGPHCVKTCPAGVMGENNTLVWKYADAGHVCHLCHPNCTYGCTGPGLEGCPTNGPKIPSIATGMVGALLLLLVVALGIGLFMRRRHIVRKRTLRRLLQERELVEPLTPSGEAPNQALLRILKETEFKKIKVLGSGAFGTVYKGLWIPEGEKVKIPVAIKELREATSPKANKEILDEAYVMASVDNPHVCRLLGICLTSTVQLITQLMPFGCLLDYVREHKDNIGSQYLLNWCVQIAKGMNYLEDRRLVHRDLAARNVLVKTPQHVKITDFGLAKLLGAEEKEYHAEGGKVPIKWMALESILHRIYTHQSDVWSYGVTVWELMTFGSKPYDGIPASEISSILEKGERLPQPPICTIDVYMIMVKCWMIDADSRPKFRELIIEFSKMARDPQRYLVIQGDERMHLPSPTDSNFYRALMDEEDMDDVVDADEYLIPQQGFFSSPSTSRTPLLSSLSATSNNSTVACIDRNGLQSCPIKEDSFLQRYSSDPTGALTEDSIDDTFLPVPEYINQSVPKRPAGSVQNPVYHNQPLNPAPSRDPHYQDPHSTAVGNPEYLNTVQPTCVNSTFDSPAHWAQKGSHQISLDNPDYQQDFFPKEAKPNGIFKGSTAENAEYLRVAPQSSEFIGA
Procedure: Assay 3: Wild-Type EGFR Cellular Phosphorylation Assay
The human colon cell line LoVo were obtained from the American type Culture Collection. […] Cells were grown in a humidified incubator at 37° C. with 5% CO2. Assays to measure cellular phosphorylation of endogenous p-EGFR in cell lysates were carried out according to the protocol described in the R&D Systems DuoSet IC Human Phospho-EGF R ELISA (R&D Systems catalogue number #DYC1095). 40 μL of cells were seeded (15000 cells/well) in growth medium in Corning black, clear-bottomed 384-well plates and incubated at 37° C. with 5% CO2 overnight. […] Plates were incubated for a further 2 h then stimulated with 100 ng/ml for 10 minutes and following aspiration of medium, 40 μL 1× lysis buffer was added to each well. Greiner black high bind 384-well plates were coated with capture antibody and then blocked with 3% BSA. […] Following aspiration and washing of the plates with PBS, 20 μL of detection antibody were added and incubated for 2 hours. […] The data obtained with each compound was exported into a suitable software package (such as Origin) to perform curve fitting analysis.

[3] = molecular target: T3, Exon19 deletion EGFR (Homo sapiens, UniProt P00533, DEL746-750); assay: Exon19 deletion EGFR (activating single mutant) cellular phosphorylation assay; conditions: PC9 human lung cells (Exon 19 deletion EGFR); endogenous p-EGFR in cell lysates by ELISA; 2 h with compound; read-out: Assay 1 (IC50)
T3 construct: Assays to measure cellular phosphorylation of endogenous p-EGFR in cell lysates; endogenous in cells; host or cells: PC9 (human lung cell line)
T3 sequence (P00533 with tags, fused parts or gaps DEL746-750): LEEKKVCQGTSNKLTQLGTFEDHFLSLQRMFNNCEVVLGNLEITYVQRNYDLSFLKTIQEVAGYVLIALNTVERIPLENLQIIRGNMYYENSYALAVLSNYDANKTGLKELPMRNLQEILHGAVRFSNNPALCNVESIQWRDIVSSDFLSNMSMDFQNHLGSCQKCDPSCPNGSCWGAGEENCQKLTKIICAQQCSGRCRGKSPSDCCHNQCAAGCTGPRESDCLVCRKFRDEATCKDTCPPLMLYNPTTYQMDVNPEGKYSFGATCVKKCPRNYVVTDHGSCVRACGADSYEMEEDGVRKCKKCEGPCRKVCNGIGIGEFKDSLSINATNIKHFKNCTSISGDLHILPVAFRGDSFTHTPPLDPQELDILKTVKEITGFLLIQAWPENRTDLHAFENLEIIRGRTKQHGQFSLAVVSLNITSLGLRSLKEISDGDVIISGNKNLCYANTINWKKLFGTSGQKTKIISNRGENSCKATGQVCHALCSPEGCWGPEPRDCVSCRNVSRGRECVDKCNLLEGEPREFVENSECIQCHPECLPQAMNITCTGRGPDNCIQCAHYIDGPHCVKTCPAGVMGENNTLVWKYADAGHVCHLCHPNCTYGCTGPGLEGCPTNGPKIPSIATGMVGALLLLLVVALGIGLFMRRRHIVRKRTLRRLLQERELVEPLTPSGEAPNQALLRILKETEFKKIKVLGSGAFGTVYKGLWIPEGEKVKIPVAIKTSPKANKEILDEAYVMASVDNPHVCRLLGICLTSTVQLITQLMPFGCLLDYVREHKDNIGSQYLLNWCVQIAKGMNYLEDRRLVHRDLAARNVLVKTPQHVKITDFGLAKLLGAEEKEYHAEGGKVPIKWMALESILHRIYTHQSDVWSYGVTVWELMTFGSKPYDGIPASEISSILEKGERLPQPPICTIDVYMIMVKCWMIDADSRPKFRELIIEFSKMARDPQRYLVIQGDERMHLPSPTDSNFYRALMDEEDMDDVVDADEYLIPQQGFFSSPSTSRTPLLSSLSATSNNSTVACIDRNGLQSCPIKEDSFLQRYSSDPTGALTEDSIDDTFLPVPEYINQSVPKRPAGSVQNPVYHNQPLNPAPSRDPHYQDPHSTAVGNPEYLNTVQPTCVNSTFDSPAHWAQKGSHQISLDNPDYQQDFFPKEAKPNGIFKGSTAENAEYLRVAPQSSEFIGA
Procedure: Assay 1: Exon19 Deletion EGFR (Activating Single Mutant) Cellular Phosphorylation Assay
The human lung cell line PC9 (Exon 19 deletion EGFR) were obtained from the American type Culture Collection. […] Cells were grown in a humidified incubator at 37° C. with 5% CO2. Assays to measure cellular phosphorylation of endogenous p-EGFR in cell lysates were carried out according to the protocol described in the R&D Systems DuoSet IC Human Phospho-EGF R ELISA (R&D Systems catalogue number #DYC1095). 40 μL of cells were seeded (10000 cells/well) in growth medium in Corning black, clear-bottomed 384-well plates and incubated at 37° C. with 5% CO2 overnight. […] Plates were incubated for a further 2 h, then following aspiration of medium, 40 μL 1× lysis buffer was added to each well. Greiner black high bind 384-well plates were coated with capture antibody and then blocked with 3% BSA. Following removal of block, […], of lysate were transferred to the Greiner black high bind 384-well plates and incubated for 2 hours. Following aspiration and washing of the plates with PBS, 20 μL of detection antibody were added and incubated for 2 hours. […] The data obtained with each compound was exported into a suitable software package (such as Origin) to perform curve fitting analysis.

IC50 [1] | IC50 [2] | IC50 [3] | SMILES
5.16 nM | 454 nM | 5.19 nM | C=CC(=O)Nc1cc(Nc2nccc(-c3cnn4c3CCCC4)n2)c(OC)cc1N(C)CCN(C)C [Example 42, N-(2-{2-Dimethylaminoethyl-methylamino}-4-methoxy-5-{[4-(4,5,6,7-tetrahydropyrazolo[1,5-a]pyridin-3-yl)pyrimidin-2-yl]amino}phenyl)prop-2-enamide]
2.86 nM | 507 nM | 6.43 nM | C=CC(=O)Nc1cc(Nc2nccc(-c3cnn4ccccc34)n2)c(OC)cc1N1CC[C@@H]2CN(C)C[C@@H]21 [Example 55, N-[2-[(3aR,6aR)-5-Methyl-2,3,3a,4,6,6a-hexahydropyrrolo[3,4-b]pyrrol-1-yl]-4-methoxy-5-[(4-pyrazolo[1,5-a]pyridin-3-ylpyrimidin-2-yl)amino]phenyl]prop-2-enamide]
51 nM | 3090 nM | 74.2 nM | C=CC(=O)Nc1cc(Nc2nccc(-c3cn(C)c4ccccc34)n2)c(OC)cc1N1CC2(CCCN2C)C1 [Example 49, N-(4-Methoxy-2-{8-methyl-2,8-diazaspiro[3.4]octan-2-yl}-5-{[4-(1-methylindol-3-yl)pyrimidin-2-yl]amino}phenyl)prop-2-enamide]
29.5 nM | 1840 nM | 28.6 nM | C=CC(=O)Nc1cc(Nc2nccc(-c3cn(C)c4ccccc34)n2)c(OC)cc1N1CC[C@@H]2CN(C)C[C@@H]21 [Example 41, N-(2-{(3aR,6aR)-5-Methyl-2,3,3a,4,6,6a-hexahydropyrrolo[3,4-b]pyrrol-1-yl}-4-methoxy-5-{[4-(1-methylindol-3-yl)pyrimidin-2-yl]amino}phenyl)prop-2-enamide]
4.41 nM | 538 nM | 5.09 nM | C=CC(=O)Nc1cc(Nc2ncc(C#N)c(-c3cnn4ccccc34)n2)c(OC)cc1N1CC[C@@H](N(C)C)C1 [Example 38, N-{5-[(5-Cyano-4-pyrazolo[1,5-a]pyridin-3-ylpyrimidin-2-yl)amino]-2-[(3R)-3-dimethylaminopyrrolidin-1-yl]-4-methoxyphenyl}prop-2-enamide]
14.8 nM | > 30000 nM | 12.4 nM | C=CC(=O)Nc1cc(Nc2ncc(C#N)c(-c3cnn4ccccc34)n2)c(OC)cc1N1CC(N(C)C)C1 [Example 40, N-{5-[(5-Cyano-4-pyrazolo[1,5-a]pyridin-3-ylpyrimidin-2-yl)amino]-2-[3-dimethylaminoazetidin-1-yl]-4-methoxyphenyl}prop-2-enamide]

The next lines start with the molecule.

SMILES | IC50 [1] | IC50 [2] | IC50 [3]
C=CC(=O)Nc1cc(Nc2ncc(C)c(-c3c[nH]c4ccccc34)n2)c(OC)cc1N1CCN(C)CC1 [Example 3, N-(5-{[4-(1H-Indol-3-yl)-5-methylpyrimidin-2-yl]amino}-4-methoxy-2-[4-methylpiperazin-1-yl]phenyl)prop-2-enamide] | 15.5 nM | 522 nM | 10.5 nM
C=CC(=O)Nc1cc(Nc2ncc(C#N)c(-c3cn(C)c4ccccc34)n2)c(OC)cc1N1CC[C@@H](N(C)C)C1 [Example 22, N-(5-{[5-Cyano-4-(1-methylindol-3-yl)pyrimidin-2-yl]amino}-2-{(3R)-3-dimethylaminopyrrolidin-1-yl}-4-methoxyphenyl)prop-2-enamide] | 1.52 nM | 73.4 nM | 2.14 nM
C=CC(=O)Nc1cc(Nc2ncc(Cl)c(-c3c[nH]c4ccccc34)n2)c(OC)cc1N1CCN(C)CC1 [Example 17, N-(5-{[5-Chloro-4-(1H-indol-3-yl)pyrimidin-2-yl]amino}-4-methoxy-2-{4-methylpiperazin-1-yl}phenyl)prop-2-enamide] | 5.64 nM | 772 nM | 23.4 nM
C=CC(=O)Nc1cc(Nc2ncc(Cl)c(-c3cn(C)c4ccccc34)n2)c(OC)cc1N(C)CCN(C)C [Example 26, N-(5-{[5-Chloro-4-(1-methylindol-3-yl)pyrimidin-2-yl]amino}-2-{2-dimethylaminoethyl-methylamino}-4-methoxyphenyl)prop-2-enamide] | 1.93 nM | 58.3 nM | 2.29 nM
C=CC(=O)Nc1cc(Nc2ncc(Cl)c(-c3cn(C)c4ccccc34)n2)c(OC)cc1N1CC(N(C)C)C1 [Example 34, N-(5-{[5-Chloro-4-(1-methylindol-3-yl)pyrimidin-2-yl]amino}-2-{3-dimethylaminoazetidin-1-yl}-4-methoxyphenyl)prop-2-enamide] | 3.77 nM | 153 nM | 9.04 nM
C=CC(=O)Nc1cc(Nc2nccc(-c3c[nH]c4ccccc34)n2)c(OC)cc1N1CCN(C)CC1 [Example 15, N-(5-{[4-(1H-Indol-3-yl)pyrimidin-2-yl]amino}-4-methoxy-2-{4-methylpiperazin-1-yl}phenyl)prop-2-enamide] | 55.2 nM | 1070 nM | 14 nM
C=CC(=O)Nc1cc(Nc2ncc(Cl)c(-c3cnn4ccccc34)n2)c(OC)cc1N(C)CCN1CCOCC1 [Example 31, N-{5-[(5-Chloro-4-pyrazolo[1,5-a]pyridin-3-ylpyrimidin-2-yl)amino]-4-methoxy-2-[methyl-(2-morpholin-4-ylethyl)amino]phenyl}prop-2-enamide] | 7.34 nM | 2510 nM | 37.5 nM
C=CC(=O)Nc1cc(Nc2nccc(-c3cnn4ccccc34)n2)c(OC)cc1N1CCN(C)CC1 [Example 16, N-[4-Methoxy-2-(4-methylpiperazin-1-yl)-5-[(4-pyrazolo[1,5-a]pyridin-3-ylpyrimidin-2-yl)amino]phenyl]prop-2-enamide] | 70.5 nM | > 18900 nM | 144 nM
C=CC(=O)Nc1cc(Nc2ncc(C#N)c(-c3cn(C)c4ccccc34)n2)c(OC)cc1N(C)CCN(C)C [Example 29, N-(5-{[5-Cyano-4-(1-methylindol-3-yl)pyrimidin-2-yl]amino}-2-{2-dimethylaminoethyl-methylamino}-4-methoxyphenyl)prop-2-enamide] | 0.885 nM | 46.5 nM | 1.23 nM
C=CC(=O)Nc1cc(Nc2ncc(C#N)c(-c3cn(C)c4ccccc34)n2)c(OC)cc1N1CCN(C)CC1 [Example 23, N-(5-{[5-Cyano-4-(1-methylindol-3-yl)pyrimidin-2-yl]amino}-4-methoxy-2-{4-methylpiperazin-1-yl}phenyl)prop-2-enamide] | 17.6 nM | 3020 nM | 16.9 nM
C=CC(=O)Nc1cc(Nc2nccc(-c3cn(C)c4ccccc34)n2)c(OC)cc1N1CC(N(C)C)C1 [Example 36, N-(2-{3-Dimethylaminoazetidin-1-yl}-4-methoxy-5-{[4-(1-methylindol-3-yl)pyrimidin-2-yl]amino}phenyl)prop-2-enamide] | 32.7 nM | 1050 nM | 43.3 nM
C=CC(=O)Nc1cc(Nc2ncc(Cl)c(-c3cnn4ccccc34)n2)c(OC)cc1N1CCN(CC(=O)N(C)C)CC1 [Example 10, N-{5-[(5-Chloro-4-pyrazolo[1,5-a]pyridin-3-ylpyrimidin-2-yl)amino]-2-[4-(2-dimethylamino-2-oxoethyl)piperazin-1-yl]-4-methoxyphenyl}prop-2-enamide] | 40 nM | 8430 nM | 73.8 nM
